For orientation: IC50 means the point on the concentration scale where inhibition reaches its midpoint. A word on the AUC(0-inf): it is the area under the concentration-time curve extrapolated to infinity. For orientation: clearance means the volume of plasma or blood freed of the substance per unit of time. A lower clearance goes with inefficient removal. For orientation: half-life means the time in which the quantity being followed falls by half. Low readings indicate rapid decline, high ones slow decline. One may read the Cmax as the maximum level reached in the sampled fluid or tissue. For orientation: Tmax means the time from dosing to the highest level. A word on the solubility: it is how much of the substance goes into solution per volume. A higher solubility goes with a readily soluble substance.

The values that follow come from patent publication US12612392B2, “Compound, pharmaceutical compositions containing same, synthesis method therefor and use thereof” (SHENZHEN ZHONGGE BIOLOGICAL TECHNOLOGY CO., LTD., priority 2022, dated 2026).

Data set [1] addresses T1, CYP2D6 (Homo sapiens, UniProt P10635).
T1 construct: A phosphate buffer solution of liver microsomes was prepared; from tissue; host or cells: human liver microsomes
As to the kind of experiment: P450 enzyme inhibition, CYP2D6. It counts as in vitro ADME. Conditions: human liver microsome, substrate Dextromethorphan. Here is the method: (§1) A phosphate buffer solution of liver microsomes was prepared. 169 μL of the phosphate buffer solution of liver microsomes and 1 μL of working solutions of various concentrations of test compounds or positive control compounds were added to a 96-well plate. The culture plate was placed in a water bath and pre-heated at 37° C. for 15 minutes. After the incubation, 10 μL of substrates were added to the culture plate (1 μL of substrates and 9 μL of the K-Mg buffer solution were added to the plate for CYP3A4-T). The incubation mixture was mixed on a rotating mixer for 10 seconds, and then 20 μL of a 10 mM NADPH solution was added to start the reaction at a final concentration of 1 mM. The experiment was repeated twice. At the predetermined time points listed in Table 4, the reaction was quenched by adding 400 μL of the quenching solution (cold ACN containing 500 nM mephetedrine and 10 nM terfenadine). Centrifugation was performed at 3220 g for 50 minutes at 4° C. 100 μl of the supernatant was transferred to a new plate. The supernatant was diluted with 100 μL of pure water. The mixture was mixed evenly, and the sample was analyzed by UPLC-MS/MS.
(In general: Microsomes from liver hold many membrane-bound enzymes, among them those of drug oxidation.)

Data set [2] concerns the target T2, CYP3A4 (Homo sapiens, UniProt P08684).
T2 construct: A phosphate buffer solution of liver microsomes was prepared; from tissue; host or cells: human liver microsomes
In words: P450 enzyme inhibition, CYP3A4. The note with it: human liver microsome, substrate Testosterone. It is filed as in vitro ADME. Here is the method:
as §1

Data set [3] has as its target T3, CYP2C9 (Homo sapiens, UniProt P11712).
T3 construct: A phosphate buffer solution of liver microsomes was prepared; from tissue; host or cells: human liver microsomes
In words: P450 enzyme inhibition, CYP2C9. It counts as in vitro ADME. The note with it: human liver microsome, substrate Diclofenac sodium. How it is done: as §1

The target in data set [4] is T4, CYP1A2 (Homo sapiens, UniProt P05177).
T4 construct: A phosphate buffer solution of liver microsomes was prepared; from tissue; host or cells: human liver microsomes
T4 sequence (P05177 1-516): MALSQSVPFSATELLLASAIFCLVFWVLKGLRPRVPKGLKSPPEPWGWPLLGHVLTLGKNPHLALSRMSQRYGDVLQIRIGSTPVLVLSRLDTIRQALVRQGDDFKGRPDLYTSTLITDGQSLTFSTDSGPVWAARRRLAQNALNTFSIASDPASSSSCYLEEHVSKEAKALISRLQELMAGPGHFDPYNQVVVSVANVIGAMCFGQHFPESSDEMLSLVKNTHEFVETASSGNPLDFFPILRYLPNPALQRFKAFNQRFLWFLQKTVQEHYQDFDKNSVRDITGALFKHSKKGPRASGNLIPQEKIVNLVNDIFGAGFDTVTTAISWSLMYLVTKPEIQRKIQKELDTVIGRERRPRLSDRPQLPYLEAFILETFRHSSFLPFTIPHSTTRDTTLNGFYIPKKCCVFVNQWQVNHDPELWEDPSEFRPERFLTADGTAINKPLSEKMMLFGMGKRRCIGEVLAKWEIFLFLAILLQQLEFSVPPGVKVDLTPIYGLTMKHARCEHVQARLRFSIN
In words: P450 enzyme inhibition, CYP1A2. The note with it: human liver microsome, substrate Phenacetin. It is filed as in vitro ADME. Here is the method: as §1

The nature of data set [5]: Pharmacokinetic evaluation in mice. It counts as in vivo. Here is the method: The test compounds were dissolved in vehicles to prepare clear solutions or homogeneous suspensions. […] Blood samples were collected at 0.083 h, 0.25 h, 0.5 h, 1 h, 2 h, 4 h, 8 h, and 24 h after the intravenous administration, and at 0.25 h, 0.5 h, 1 h, 2 h, 4 h, 6 h, 8 h, and 24 h after the oral administration. Plasma samples were centrifuged, and the supernatant was collected to prepare samples, which were then quantitatively analyzed by LC/MS/MS.

The nature of data set [6]: Kinetic solubility evaluation. It counts as physicochemical. Conditions: kinetic from dmso stock, 37° C. Here is the method:
The test compounds were dissolved in DMSO to prepare 10 mM stock solutions. 8.71 g of K2HPO4 was added to 500 mL of deionized water to prepare a 100 mM K2HPO4 solution. 2.05 g of potassium dihydrogen phosphate was added to 150 ml of deionized water to prepare a 100 mM potassium dihydrogen phosphate solution. 405 mL of 100 mM K2HPO4 and 95 mL of 100 mM KH2PO4 were mixed, and the mixed solution was adjusted to pH 7.4 by a 100 mM K2HPO4/KH2PO4 solution. 10.41 g of FaSSIF buffer concentrate was added to 240.3 g of deionized water to prepare a buffer solution (fasted-state simulated intestinal fluid, pH=6.5). 4.071 g of FeSSIF buffer concentrate was added to 45.97 g of deionized water to prepare a buffer solution (fed-state simulated intestinal fluid, pH=5.0).
[…] (for PBS) or 37° C. (for others). After the incubation, the solution was transferred to a filter plate. All samples were filtered. 5 μL of the filtrate was added to 5 μL of DMSO, and 490 μl of an aqueous acetonitrile solution containing the internal standard (1:1), and the mixture was mixed evenly. Based on the properties of the compound and its response in mass spectrometry, dilution with an aqueous acetonitrile solution containing the internal standard (1:1) was performed. The dilution factor was varied according to the solubility value and UPLC-MS/MS signal response.

T3 sequence (P11712 whole entry): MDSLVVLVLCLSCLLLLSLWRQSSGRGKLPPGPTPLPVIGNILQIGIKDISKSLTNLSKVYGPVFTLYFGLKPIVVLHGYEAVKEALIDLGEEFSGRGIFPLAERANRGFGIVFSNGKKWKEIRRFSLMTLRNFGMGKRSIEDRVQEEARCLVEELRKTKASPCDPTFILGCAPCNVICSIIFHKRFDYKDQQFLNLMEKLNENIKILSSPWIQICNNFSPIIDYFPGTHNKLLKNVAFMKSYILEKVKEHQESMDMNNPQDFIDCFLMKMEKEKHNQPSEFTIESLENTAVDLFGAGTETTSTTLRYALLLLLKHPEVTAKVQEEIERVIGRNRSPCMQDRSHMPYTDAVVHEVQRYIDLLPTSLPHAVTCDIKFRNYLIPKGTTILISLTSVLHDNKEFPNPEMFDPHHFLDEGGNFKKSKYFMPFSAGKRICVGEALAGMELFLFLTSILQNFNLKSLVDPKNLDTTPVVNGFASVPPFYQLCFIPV
T1 sequence (P10635 whole entry): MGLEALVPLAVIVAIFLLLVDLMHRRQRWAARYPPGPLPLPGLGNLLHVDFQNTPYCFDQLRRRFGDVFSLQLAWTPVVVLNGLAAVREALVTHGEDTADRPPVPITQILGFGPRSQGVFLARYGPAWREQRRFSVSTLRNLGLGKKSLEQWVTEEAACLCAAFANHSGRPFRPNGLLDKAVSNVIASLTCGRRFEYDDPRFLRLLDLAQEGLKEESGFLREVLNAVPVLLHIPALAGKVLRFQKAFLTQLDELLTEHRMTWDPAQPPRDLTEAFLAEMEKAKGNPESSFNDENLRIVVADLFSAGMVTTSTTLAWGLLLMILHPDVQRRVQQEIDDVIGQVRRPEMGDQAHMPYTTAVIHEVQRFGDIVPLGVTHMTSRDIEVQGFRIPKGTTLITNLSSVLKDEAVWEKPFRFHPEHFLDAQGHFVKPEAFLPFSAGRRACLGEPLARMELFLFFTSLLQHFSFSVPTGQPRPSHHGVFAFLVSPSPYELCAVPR
T2 sequence (P08684 whole entry): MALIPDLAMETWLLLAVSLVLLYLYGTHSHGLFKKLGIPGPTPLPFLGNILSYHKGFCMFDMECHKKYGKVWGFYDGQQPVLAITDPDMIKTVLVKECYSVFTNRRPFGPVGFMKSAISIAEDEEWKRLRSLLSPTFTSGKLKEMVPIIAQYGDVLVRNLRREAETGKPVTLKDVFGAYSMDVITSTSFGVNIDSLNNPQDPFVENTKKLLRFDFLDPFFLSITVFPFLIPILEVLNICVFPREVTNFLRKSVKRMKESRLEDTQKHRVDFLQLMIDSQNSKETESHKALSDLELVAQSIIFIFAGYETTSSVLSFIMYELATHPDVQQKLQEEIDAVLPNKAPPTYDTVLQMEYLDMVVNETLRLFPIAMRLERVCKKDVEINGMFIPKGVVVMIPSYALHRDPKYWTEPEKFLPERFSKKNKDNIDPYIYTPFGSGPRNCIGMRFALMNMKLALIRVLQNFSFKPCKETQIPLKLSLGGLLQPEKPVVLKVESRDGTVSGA

For `O=C(COc1ccc(Cl)c(F)c1)N[C@H]1CC[C@H](c2nnc(N3CC(OC(F)(F)F)C3)o2)CC1` [Compound 6], the IC50 in data set [1] was above 30 µM. The IC50 in data set [2] is above 30 µM. In data set [3], this compound showed an IC50 above 10 µM. In data set [4], this compound gave an IC50 above 10 µM. Also, the “pharmacokinetic properties in mice” value in data set [5] (Cl, T1/2, Cmax, AUC, F) was “excellent pharmacokinetic properties in mice”. Also, in data set [5] (plasma, mouse IV (1 mg/kg)), the AUC(0-inf) worked out at 11.4 µg·h/mL, the C0 stood at 1240 ng/mL, the clearance is 1.46 mL/min/kg and the half-life was 381 min. In addition, the Vd in data set [5] (plasma, mouse IV (1 mg/kg), read-out: Vss) was 0.707 L/kg. For the same compound, in data set [5] (plasma, mouse PO (30 mg/kg)), the AUC(0-inf) turned out to be 516 µg·h/mL, the concentration peaked (Cmax) at 48000 ng/mL, the Tmax was determined as 3.33 h and the half-life was 187 min. Besides, the bioavailability in data set [5] (plasma, mouse PO (30 mg/kg) vs IV (1 mg/kg)) is 161%. Further, the solubility at 1.5 h in data set [6] (FaSSIF buffer (fasted-state simulated intestinal fluid), fassif, fasted-state simulated intestinal fluid (pH=6.5)) is above 10 µg/mL. Also, the solubility at 1.5 h in data set [6] (FeSSIF buffer (fed-state simulated intestinal fluid), fessif, fed-state simulated intestinal fluid (pH=5.0)) was above 80 µg/mL.
